Measurements as given in paper PMC4191406, “Tumor-targeted in vivo gene silencing via systemic delivery of cRGD-conjugated siRNA” (Nucleic Acids Research, 2014).

Experiment: Serum cytokines by ELISA (innate immune response)
Format: in vivo, athymic nude mice (nu/nu)
Conditions: single injection 1 nmol, 6 and 24 h after the injection, n = 3, versus saline
Protocol: Athymic nude female mice (nu/nu) were injected with 1 nmol (∼0.753 mg/kg; n = 3) of cRGD-siRNA or 1 nmol of cRGD alone (∼0.045 mg/kg; n = 3) in 150 μl of saline. Mice (n = 3) injected with saline alone (200 μl) were used as negative controls. Six hours and 24 h after the injection, 300 μl of blood was drawn from each mouse and the serum was collected. Levels of serum cytokines IFN-α, IFN-γ, IL-6 and IL-12 were determined by ELISA, following manufacturer's recommendations (eBioscience/Affymetrix, USA).

serum levels of interferons α and γ, interleukins 6 and 12: No significant difference
SMILES: N=C(N)NCCC[C@@H]1NC(=O)[C@H](CCCCNC(=O)COCCOCCNC(=O)CCN2C(=O)C=CC2=O)NC(=O)[C@@H](Cc2ccccc2)NC(=O)[C@H](CC(=O)O)NC(=O)CNC1=O [cRGD, cyclo(Arg-Gly-Asp-D-Phe-Lys[PEG-MAL])]
